One series deals with lung granulomas. The conditions noted are these: cynomolgus monkey, in vivo.
Series [1] can be described thus: Gamma counting of Percoll-separated blood fractions. It is filed as in vivo, cynomolgus macaques (Macaca fascicularis). The settings on record: Percoll gradient separation: RBC pellet, buffy coat, plasma.
In a further series the target is T1, FPR1 (Homo sapiens, UniProt P21462).
T1 sequence (P21462 1-350): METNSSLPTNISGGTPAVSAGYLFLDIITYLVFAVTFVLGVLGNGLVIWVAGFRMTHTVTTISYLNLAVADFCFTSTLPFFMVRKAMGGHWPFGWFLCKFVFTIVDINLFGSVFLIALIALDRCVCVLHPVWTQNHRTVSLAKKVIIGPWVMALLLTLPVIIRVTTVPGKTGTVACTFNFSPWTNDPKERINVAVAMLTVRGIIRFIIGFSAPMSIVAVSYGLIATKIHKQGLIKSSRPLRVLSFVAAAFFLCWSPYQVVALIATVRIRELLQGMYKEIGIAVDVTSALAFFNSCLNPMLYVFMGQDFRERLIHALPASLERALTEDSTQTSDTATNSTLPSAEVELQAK
In words: FPR1 receptor internalization in GFP-FPR1 HEK293T cells. It is filed as cell-based. The conditions noted are these: fluorescence imaging, vs untreated controls.

The next series deals with Gr-1 stained neutrophils. The series can be described thus: Immunofluorescence microscopy of CFA-injected mouse paws. It is filed as in vivo. The settings on record: inflamed mouse paw, 5 h postprobe injection, frozen sections.

Entries after “also recorded” stand apart in the source; their conditions may differ. Where a SMILES comes first, the peptide text is derived from it. Primed or numbered codes have the meaning given here. Where no end group is shown, it is not given here. Side-chain parts run from the residue outwards. [ ]: non-standard residue; d: D form. The star is where a group is joined. CB‑TE1A1P = O=C(CN1CCCN2CCN(CCCN(CP(=O)(O)O)CC2)CC1)*; cinnamoyl = O=C(/C=C/c1ccccc1)*; PEG12′ = not defined here

For “2-deoxy-2-(^18F)fluoro-D-glucose [^18F-FDG]”, in the series on lung granulomas, the “18F-FDG liver uptake by PET/CT” value is “minimal” and the “18F-FDG uptake in lung granulomas by PET/CT” value was “readily identifiable above lung background”. In the case of `CC(C)C[C@@H](NC(=O)[C@H](Cc1ccccc1)NC(=O)[C@@H](CC(C)C)NC(=O)[C@H](Cc1ccccc1)NC(=O)C=Cc1ccccc1)C(=O)N[C@@H](Cc1ccccc1)C(=O)O` [FLFLF, N-cinnamoyl-F-(D)L-F-(D)L-F] (HELM PEPTIDE1{[O=C(C=Cc1ccccc1)[*:2]].F.[dL].F.[dL].F}$$$$V2.0), the “Distribution of FLFLF in peripheral blood fractions” value in series [1] is “remains in the plasma fraction rather than being bound to blood cells”. For “FLFLF-PEG12: pegylated FLFLF tested for FPR1 internalization (cinnamoyl-F[dL]F[dL]FK([PEG12′-CB‑TE1A1P]); also: CB-TE1A1P chelating 64Cu)”, the “FPR1 internalization / signaling” value in the series with FPR1 is listed as “did not lead to internalized receptor”. Regarding “cinnamoyl-F(D)LF(D)LFK-PEG12-Cy3 [Cy3-FLFLF]”, the “Cy3-FLFLF labeling of cells in tissue / colocalization with Gr-1” value in the series on Gr-1 stained neutrophils is “labeled neutrophils could be detected in tissues by immunofluorescence, although other non-Gr-1-stained cells were detectable; also recorded: variable amounts of colocalization of Cy3-FLFLF and Gr-1”.

Values taken from paper PMC8744071 (ACS infectious diseases, 2021).
